# Laboratory results reported in patent publication US20230073834A1, “SUBNORMOTHERMIC MACHINE PERFUSION OF ORGANS WITH CARBON MONOXIDE AND OXYGEN” (priority 2021, published 2023).
# Key:
# [1] = test system: porcine DCD kidneys; test: Ex vivo pulsatile perfusion of porcine DCD kidneys with CORM-401 in UW solution, then blood reperfusion; set-up: species or system large male Landrace pig
# Method: (§1) Methods: To stimulate donation after circulatory death condition, kidneys from large male Landrace pig were retrieved after 1-hour warm ischemia in situ by cross-clamping the renal pedicle. […] Kidneys were then reperfused with normothermic isogeneic porcine blood through oxygenated pulsatile perfusion for 10 hours. Urine was collected, vascular flow was assessed during reperfusion and histopathology was assessed after 10 hours of reperfusion. Sections were stained with H&E (not shown), TUNEL (FIG. 4A) and MSB (FIG. 4B) to quantify ATN (FIG. 4C), Apoptosis (brown spot), Hemorrhage (yellow stain), and neutrophil gelatinase-associated lipocalin (NGAL) to quantify kidney injury (FIG. 4D).
# [2] = test system: Toll-like receptor 2; test: Toll-like receptor suppression in CORM-401 perfused porcine DCD kidneys; set-up: species or system large male Landrace pig; details: 200 μM CORM-401 perfused kidneys
# Method: as §1
# [3] = test system: Toll-like receptor 4; test: as above; set-up: species or system large male Landrace pig; details: 200 μM CORM-401 perfused kidneys
# Method: as §1
# [4] = test system: Toll-like receptor 6; test: as above; set-up: species or system large male Landrace pig; details: 200 μM CORM-401 perfused kidneys
# Method: as §1
# [5] = test system: Pig kidneys; test: Ex vivo subnormothermic (22° C.) pulsatile perfusion of pig kidneys with HBOC-201 versus blood or static cold storage
# Method: Methods: Pig kidneys (n=5) were procured after 30 minutes of warm in situ ischemia by cross-clamping the renal arteries. Organs were flushed with histidine tryptophan ketoglutarate solution and subjected to static cold storage or pulsatile perfusion with an RM3 pump at 22° C. for 4 hours with HBOC-201 and blood. Thereafter, kidneys were reperfused with normothermic (37° C.) oxygenated blood for 4 hours. Blood and urine were subjected to biochemical analysis. Total urine output, urinary protein, albumin/creatinine ratio, flow rate, resistance were measured. Acute tubular necrosis, apoptosis, urinary kidney damage markers, neutrophil gelatinase-associated lipocalin 1, and interleukin 6 were also assessed.
# [6] = 200 μM, 4 h perfusion at 4° C. in UW solution, 10 h blood reperfusion, vs inactive CORM-401
# [7] = 22° C. 4 hours perfusion, 4 hours reperfusion, as with blood
# [8] = 22° C. 4 hours perfusion, 4 hours reperfusion, versus cold storage
Compound,"intrarenal hemorrhage and vascular dotting during reperfusion ([1]; 200 μM, 4 h perfusion at 4° C. in UW solution, 10 h blood reperfusion)","ATN (acute tubular necrosis) in histopathologic sections [1, 6]","dUTP nick end labeling staining in histopathologic sections [1, 6]","kidney damage markers (kidney damage marker-1 and neutrophil gelatinase-associated lipocalin) [1, 6]","urinary protein excretion ([1]; 200 μM, 4 h perfusion at 4° C. in University of Wisconsin solution, 10 h normothermic blood reperfusion, vs inactive CORM-401)","injury in porcine DCD kidneys ([1]; 1 h warm ischemia, perfusion with UW solution, 10 h blood reperfusion at 37° C.)",Toll-like receptor 2 suppression (anti-inflammatory action) [2],Toll-like receptor 4 suppression (anti-inflammatory action) [3],Toll-like receptor 6 suppression (anti-inflammatory action) [4],"renal blood flow and function upon reperfusion ([5]; 22° C. 4 hours perfusion, 4 hours reperfusion with 37° C. oxygenated blood, compared with blood-treated kidneys)","IL6 levels [5, 7]","Urinary damage markers [5, 7]","TUNEL staining (apoptosis) [5, 8]","acute tubular necrosis scores [5, 8]","TUNEL staining (apoptosis) ([5]; 22° C. 4 hours perfusion, 4 hours reperfusion, versus cold storage, listed as HBOC)","tissues oxygen saturation ([5]; 22° C., 4 hours perfusion, compared with blood)"
CN(CC(=O)O)C(=S)[S-].[C-]#[O+].[C-]#[O+].[C-]#[O+].[C-]#[O+].[Mn] [CORM-401],prevented,reduced,reduced,attenuated,reduced,reduced injury,suppressing,suppressing,suppressing,–,–,–,–,–,–,–
HBOC-201: acellular hemoglobin-based oxygen carrier; blood free oxygen carrier (Hemopure),–,–,–,–,–,–,–,–,–,similar,similarly reduced,similarly reduced,vastly reduced,vastly reduced,reduces apoptosis,equivalent to blood
